Marks after values point to notes of the source that are not given here.
Legend:
Assay type in all cases: physicochemical
[1] = Chemical analysis of AE10C Trial #1 in-process samples and finished product (Example 36); settings: Dronabinol AE10C Formulation, Trial #1 samples
[2] = Assay/impurities of AE14B trial batch #1 (Examples 17 and 19); settings: API as dispensed
[3] = AE14B trial batch #3 assay/impurities during process (Examples 22 and 23)
[4] = Forced degradation of API, drug product emulsion and placebo (Examples 30 and 32)
Experimental: In this example, a forced degradation study was performed on the API, drug product emulsion, and a placebo. Only w/w % impurities are presented.
In this example, an additional forced degradation study was performed. Harsh conditions for oxidation (H2O2 concentration increased from 1% to 3%, exposure increased from 30 min to 2 hr) and conditions for photolytic degradation (exposure decreased from 24 hr to 40 min) were used in an additional forced degradation study.

[5] = Oxidation 1% H2O2 0.5 hr, 1st study
[6] = Oxidation 3% H2O2 2 hr, 2nd study

## CCCCCc1cc(O)c2c(c1)OC(C)(C)[C@@H]1CCC(C)=C[C@@H]21 [API]
[1]
  Assay % LC: 87.2 % LC
  Impurity (% Area) CBD: 0.62 % Area
  Impurity (% Area) RRT 0.46: 0.19 % Area
  Impurity (% Area) RRT 0.70: 0.52 % Area
  Impurity (% Area) Total: 1.3 % Area
  Impurity (% w/w) CBN: 0.55 % w/w
  Impurity (% w/w) RRT 0.46: 0.17 % w/w
  Impurity (% w/w) RRT 0.93: 0.46 % w/w
  Impurity (% w/w) Total: 1.2 % w/w
[2]
  Impurity CBN: 0.18 % Area
  THC % Area: 99.84 % Area
  Total impurities: 0.2 % Area
[2]; calculated using 48.4% based on the certificate of analysis
  THC Assay: 96.63* % LC
[3]; API Sample
  % Area (THC from Imp): 99.6 % Area
  % Area of Impurities: CBN: 0.18 % Area
  % Area of Impurities: RRT 0.46: <0.1 % Area
  % Area of Impurities: RRT 0.93: 0.18 % Area
  % Area of Impurities: Total: 0.4 % Area
  % w/w of Impurities: CBN: 0.15 % w/w
  % w/w of Impurities: RRT 0.46: <0.1 % w/w
  % w/w of Impurities: RRT 0.93: 0.15 % w/w
  % w/w of Impurities: Total: 0.3 % w/w
  API % w/w: 38.29 % w/w
  Assay % LC: 79.12 % LC
  Conc.: 38.29 % w/w
  Impurity CBN: 0.18 % Area
  Impurity RRT 0.93: 0.18 % Area
  Osmolarity (mOsm/L): 228 mOsm/L
  Total impurities: 0.4 % Area
  pH: 6.60
[3]; API Sample column
  Osmolarity: 228 mOsm/L
  pH: 6.60
[3]; Batch #3
  total impurities excluding late eluting excipient impurities (RRT 1.22 and later): 0.4 % area
[3]; Repeated API Sample
  API % w/w: 44.2 % w/w
  Assay % LC: 91.29 % LC
[4]; Acid 24 hr, 1st study
  % Area: 96.0 % Area
  % w/w Impurities CBN: 1.54 % w/w
  % w/w Impurities RRT 0.30: 0.08 % w/w
  % w/w Impurities RRT 0.40: 0.71 % w/w
  % w/w Impurities RRT 0.46: 0.22 % w/w
  % w/w Impurities RRT 0.49: 0.37 % w/w
  % w/w Impurities RRT 0.56: 0.18 % w/w
  % w/w Impurities RRT 0.62: 0.37 % w/w
  % w/w Impurities Total: 3.5 % w/w
  Assay % LC: 83.6 % LC
[4]; Base 24 hr, 1st study
  % Area: 95.3 % Area
  % w/w Impurities CBN: 1.19 % w/w
  % w/w Impurities RRT 0.30: 0.13 % w/w
  % w/w Impurities RRT 0.40: 1.72 % w/w
  % w/w Impurities RRT 0.46: 0.30 % w/w
  % w/w Impurities RRT 0.56: 0.42 % w/w
  % w/w Impurities RRT 0.62: 0.31 % w/w
  % w/w Impurities Total: 4.1 % w/w
  Assay % LC: 82.9 % LC
[4]; Control, 1st study
  % Area: 97.5 % Area
  % w/w Impurities CBD: 0.52 % w/w
  % w/w Impurities CBN: 1.41 % w/w
  % w/w Impurities RRT 0.46: 0.28 % w/w
  % w/w Impurities Total: 2.2 % w/w
  Assay % LC: 85.8 % LC
[4]; Control, 2nd study
  % Area: 97.4 % Area
  % w/w Impurities CBD: 0.58 % w/w
  % w/w Impurities CBN: 1.41 % w/w
  % w/w Impurities RRT 0.46: 0.26 % w/w
  % w/w Impurities Total: 2.3 % w/w
  Assay % LC: 85.8 % LC
[4]; [5]
  % Area: 97.5 % Area
  % w/w Impurities CBN: 1.27 % w/w
  % w/w Impurities RRT 0.46: 0.25 % w/w
  % w/w Impurities RRT 0.62: 0.49 % w/w
  % w/w Impurities Total: 2.0 % w/w
  Assay % LC: 78.6 % LC
[4]; [6]
  % Area: 97.0 % Area
  % w/w Impurities CBD: 0.62 % w/w
  % w/w Impurities CBN: 0.79 % w/w
